The results in this text go back to patent US6849650B2, “Heterocyclic compounds, pharmaceutical compositions comprising same, and methods for inhibiting β-amyloid peptide release and/or its synthesis by use of such compounds” (Athena Neurosciences, Inc., priority 1998, dated 2005).

Structures are written as SMILES.

For `COC(=O)C1(Cc2ccccc2)CNC(C(C)NC(=O)Cc2cc(F)cc(F)c2)=N1` (stereo not shown) [Example 5, 2-[1-(3,5-difluorophenylacetamido)ethyl]-4-methoxycarbonyl-4-phenylmethyl-2-imidazoline], the melting point was in the range of 158 to 160 °C.

For orientation: melting point means the temperature of the solid-liquid transition.
